Measured values published in US10882821B1, “Enantiomeric compound for the reduction of the deleterious activity of extended nucleotide repeat containing genes” (THE BOARD OF TRUSTEES OF THE LELAND STANFORD JUNIOR …, priority 2017, dated 2021).
pIC50: −log10 of the molar value.

What was measured:
mutant HTT protein = assay: mutant HTT activity assay in induced pluripotent stem cells (Western blot); assay type: cell-based, human; conditions: HD patient iPSC; for effect on mutant HTT protein level in iPSC derived from a Huntington Disease patient: one day treatment, Western blot
Experimental: 3. Mutant HTT Activity Assay in Induced Pluripotent Stem Cells (iPSC)
Huntington disease patient iPSCs (ND36999 from Coriell Institute) were detached into single cells by Accutase (AT104 from Accutase) and plated on a 24-well plate coated with Matrigel (354277 from Corning). When the cells' confluency reaches about 70%, compounds are added to the cell culture medium StemMACS (130104368 from MiltenyiBiotec) and incubated with the cells for one day. Then the medium is removed and the cells are washed with PBS. After all liquid is removed, the plate is put in −80° C. for overnight. After taking out the plate from freezer, lysis buffer (30 mM Tris-HCl, pH 8.0, 5 mM NaCl, 0.1% Triton X-100) with complete proteinase inhibitor cocktail (5892791001 from Sigma-Aldrich) is immediately added to the cells. Cell samples are lysed on ice for 10 minutes. The supernatants from spinning (14 k rpm for 10 min) are collected. The protein concentrations are determined by BCA assay (Pierce, ThermoFisher). Equal amounts of protein are loaded onto 4-12% gel. After electrophoresis, the gels are transferred to nitrocellulose membranes by wet transfer at 35V for 16 hr. The protein level of mutant HTT, total HTT and tubulin are determined by immunoblotting with anti-poly Glutamine (MAB1574 from Millipore), anti-Huntingtin protein (MAB2166 from Millipore) and anti-alpha tubulin (AJ1034a from ABGENT). Blots are imaged on a Li-Cor Odyssey infrared imager. The bands intensities are determined by Li-Cor Odyssey software.
Using the protocol reported above, iPSCs were treated with HD143 at various doses for 24 hr. The cells were collected and lysed for protein quantification. Equal amounts of protein were applied on SDS-PAGE gel for Western Blotting. Mutant HTT protein was recognized by polyQ antibody (MAB1574 from Millipore) while wild type HTT protein was blotted by anti-Huntingtin antibody (MAB2166 from Millipore). Both proteins were scanned and quantified by Li-Cor Odyssey and normalized by tubulin.

[1] = molecular target: T1, interaction between Supt4h and NGN (subunit of Supt5h) (Homo sapiens, UniProt P63272); assay: split Gaussia luciferase complementation assay (M2-8 cells); assay type: cell-based; conditions: for pIC50: M2-8 cells, 24 hr treatment
T1 construct: expressed in transfected cells
Experimental: 1. Slit Gaussia Luciferase Complementation Assay […]
i pNBR-X1-Supt4-Gluc1 and pNEBR-X1-NGN-Guc2
The HA-Supt4hand Flag-NGN fragments are amplified by PR using the plasmid pHA-Supt4h-YC and pFlag-NGN-YN and sub-cloned individually into pcDNA3.1-Gluc1 and pcDNA3.1-GIuc2 (described in “A highly sensitive protein-protein interaction assay based on Gausssia Luciferase” published at Nat Methods. 2006 December; 3(12):977-9.Epub 2006 Nov. 12). Then HA-Supt4h-Gluc1 and Flag-NGN-Gluc2 are amplified by PCR and inserted to pNEBR-X1-Hygro (New England BioLabs), which contain RheoSwitch responsive element under the control of RheoSwitch ligand. […]
ii: pNEBR-X1-Supt4h-G1-NGN-G2
PCR products containing the sequence from 5XRE to polyA in pNEBR-X1-NGN-G2 are inserted to pNEBR-X1-Supt4h-G1 at Pcil site to generate Supt4h-G1 and NGN-G2 bidirectional under their own RheoSwitch responsive element and polyA in the same plasmid. […]
b. Stable Cloned Cell Line i: 293-R1 is a cloned cell which is engineered to constitutively express RSL1 receptor/activator by transfecting HEK 293 cells with pNEBR-R1 plasmid (New England BioLabs) and selected with Blasticidin. […]
ii: M2-8 is a cloned 293-R cell which can inducibly express pNEBR-X1-Supt4h-G1-NGN-G2 by addition of RSL1. Two point mutations (M431 and M1101) are introduced to the GL1 and GL2 for better stability according to “A high-throughput cell-based Gaussia luciferase reporter assay for identifying modulators of fibulin-3 secretion” published on J Biomol Screen. 2013 July; 18(6):647-58. The cell line is selected by Hygromycin. […]
c. Cell Culture and Transfection Condition
All the HEK-293 cells and derivative cell clones are maintained in DMEM containing 10% FBS plus corresponding antibiotics (250 μg/ml hygromycin B, 10 μg/ml blasticidin or both) at 37° C., 5% CO2. d. Bioluminescence Assay in Cell Lysates
For stable cell M2-8, the cells are plated into 96 well white plate directly. 24 hours later, RheoSwitch ligand together with/without test compound is added to the cells for induction/drug treatment. After 24 hr, the cells are washed with PBS and the plate was put in −20° C. freezer for overnight. After taking out the plate from freezer, lysis buffer (30 mM Tris-HCl, pH 8.0, 5 mM NaCl, 0.1% Triton X-100) with 10 μg/ml native coelenterazine (Nanolight Technology) is immediately added to the cells. The cells are lysed at room temperature for one hour in dark. After shaking for about 1 min, the signal intensities (integrated 100 ms) from the plate were read on Tecan Infinite M200 or M1000.
The split gaussia luciferase complementation assay measures the interaction between Sup4h and NGN. NGN is the subunit of Supt5h that binds to Supt4h. […] Therefore, administration of HD143 results in decreased production of mutant proteins encoded by genes that include mutant nucleotide repeats.

[2] = brain to plasma ratio after oral dose; assay type: in vivo; conditions: at 1 hour following a 5 mg/kg oral dose in rats
[3] = system: mutant HTT in lymphoblastoid cells GM14044; assay: HD lymphoblastoid cell assay to assess mutant HTT reduction; assay type: cell-based, human; conditions: 72 hours
Experimental: 3. HD Lymphoblastoid Cell Assay to Assess Mutant HTT Reduction
Lymphoblastoid cells GM14044, which are derived from Juvenile HD patient with around 250 CAG repeats in the mutant HTT allele, are used for lymphoblastoid cell assays. Lymphoblastoid cells are cultured as suspension cells. Right before the compound treatments, 5×10^5 cells/well are seeded into 24 well plate in 1.5 ml RPMI culture medium plus 10% fetal bovine serum. Compounds in serial dilutions are added into the well for the indicated final concentration. Cells are maintained in 37° C., 5% CO2 incubator for 72 hours
b. Compound Effect in Reducing mHTT (IC50)
The rest of the cell/medium mixture is removed from culture plate into a 1.5 ml microcentrifuge tube, then centrifuged at 2500 rpm for 2 minutes to remove the culture medium. Cell pallets are washed with 1×PBS, then stored at −80° C. until ready for Western blot analysis. Western blot analysis is performed as described above. The intensity of HTT from untreated cells is set as 100% and the IC50 of the compound is defined as the compound concentration at which the HTT protein was reduced to 50%.

[4] = system: Gmr-Htt97Q Drosophila HD model (mutant Htt); assay: eye morphology (rough eye) analysis in Drosophila HD model; assay type: in vivo, Drosophila melanogaster; conditions: Gmr-Htt97Q/+ flies, 10 or 100 μM in media
Experimental: The Drosophila melanogaster (fruit fly) HD models used in this set of experiments carry the coding sequence of human Httexon1 with 97 CAG repeats to mimic mutant Httof Huntington's disease (HD). The Gmr::Htt97Q fly, expressing mutant Htt primarily in the neurons of Drosophila compound eyes, has a severe degeneration of photoreceptor neurons and the phenotypic trait ‘rough eye’. All of the fly stocks and genetics crosses were maintained at 25° C. on standard cornmeal yeast agar media.
2. Eye Morphology (Rough Eye) Analysis
15 adult male flies (Gmr-Htt97Q/Gmr-Htt97Q or Gmr/Gmr) were crossed with 15 virgin female flies W1118(+/+) in a vial containing standard yeast agar media with testing compound (+)-HD143 in a concentration of 10 μM or 100 μM. Parent-flies were first removed from vials at day 7, followed by a collection of newly hatched flies for ‘rough eye’ analysis. The morphology of compound eyes was captured using a Leica DMR upright microscope equipped with a digital camera (CooISNAP 5.0, Photometrics). […]
FIG. 4A. The morphology of compound eye was analyzed in fruit flies treated with or without (+)-HD143. […] To quantify the appearance of “rough eye” in Gmr-Htt97Q/+ treated with 10 and 100 μM of (+)-HD143, ten flies were randomly picked from each group and the number of flies with “rough eye” phenotype were determined under microscope. […]

Structure (SMILES)	effect on mutant HTT protein level in iPSC derived from a Huntington Disease patient (mutant HTT protein)	pIC50 [1]	Dose to reduce mutant HTT in HD iPSC (mutant HTT protein; 24 hr)	effect on Supt4h/NGN interaction ([1]; split Gaussia luciferase complementation assay)	[Brain]/[Plasma] [2]	pIC50 [3]	fold more potent than racemic HD143 ([1]; ratio of IC50 values, split Gaussia luciferase assay) [fold]	effect on neuron degeneration phenotypes (rough eye) of mutant Htt in Drosophila HD models [4]	effect on neuron degeneration phenotypes (rough eye) of mutant Htt in Drosophila HD models ([4]; listed as (+)-HD143)
Brc1ccc2[nH]c3c(c2c1)CCC[C@@H]3NCc1ccccc1.Cl [(S)-(−)-HD143, (S)-(−)-N-Benzyl-6-bromo-2,3,4,9-tetrahydro-1H-carbazol-1-amine Hydrochloride]	showed no activity	6.05							
Brc1ccc2[nH]c3c(c2c1)CCCC3NCc1ccccc1 (racemic) [racemic HD143, N-benzyl-6-bromo-2,3,4,9-tetrahydro-1H-carbazol-1-amine]	decreases mutant HTT protein	7.52	>=60 nm	interrupts the interaction between Sup4h and NGN	9 at 1 hour following a 5 mg/kg oral dose in rats	7.05			
Brc1ccc2[nH]c3c(c2c1)CCC[C@H]3NCc1ccccc1 [(R)-(+)-HD143, (R)-(+)-N-benzyl-6-bromo-2,3,4,9-tetrahydro-1H-carbazol-1-amine]	significantly reduced mutant HTT protein level	7.82					2	alleviates neuron degeneration phenotypes	Alleviates Neuron Degeneration Phenotypes
